Earlier results in patent US20060008512A1, “Composition and methods for improved animal performance” (priority 2004, published 2006).
Read-outs that look alike come from different tables or passages of the source.

Key:
[1] = system: suckling rat pups; conditions: 0.1% solution in mother's drinking water, birth to 24 days, cited from earlier work
[2] = system: male rats; conditions: treated from birth to day 25, cited from earlier work
[3] = system: male Peterson broiler breeder chicks; conditions: 0.1% dietary, cited from earlier work
[4] = system: broiler chickens; conditions: finishing-phase T3 administration alone; cited from earlier work
[5] = system: growing cockerel and pullet chickens; conditions: 10 mg/kg dietary thyroid hormone; cited from earlier work
[6] = system: pigs; conditions: 1,000 mg betaine/kg diet; cited from earlier work
[7] = system: dogs; conditions: approximately 5 mg biotin/10 kg body weight for 3 to 5 weeks; cited from earlier work
[8] = system: laying hens; conditions: 20 to 40 mg corticosterone/kg diet; cited from earlier work
[9] = system: porcine thyroid follicles; conditions: cited from earlier work
[10] = system: female Sprague-Dawley rats; conditions: fifteen days, cited from earlier work; for Concentration of reverse T3: control 71.7; for Concentration of T3: control 670
[11] = system: humans; conditions: daily doses of 100 to 200 mg iodide (from potassium iodide) per person; cited from earlier work
[12] = system: isolated porcine thyroid follicles; conditions: 10 microM of iodide, comparison value; cited from earlier work
[13] = system: White Leghorn hens; conditions: single i.m. injection releasing 60 mcg/kg body weight per day for 30 days, cited from earlier work
[14] = system: pigs; conditions: 5 or 8 mg iodide/kg feed for 3 months; cited from earlier work
[15] = serum adjusted to 10 mM sodium salicylate; cited from earlier work
[16] = system: male rats; conditions: 200 mg/kg body weight i.v.; blood 30-240 minutes later; cited from earlier work
[17] = system: young male Nile tilapia fish; conditions: 100 or 150 mg thiouracil/kg diet for 40 days; by 98 days; cited from earlier work
[18] = system: cockerels; conditions: fed from 1 day of age; by the 14th week; cited from earlier work
[19] = system: neonatal male rats; conditions: fed from birth to 24 days of age, cited from earlier work
[20] = system: broiler breeder hen; conditions: 50 mg/kg feed; days 11 and 12; cited from earlier work

Molecule: CCCc1cc(=O)[nH]c(=S)[nH]1 [6-propyl-2-thiouracil]
- Decline of average Leydig cell volume ([1]; at 180 days): about 20%
- Increase in number of Leydig cells per testis ([1]; at 180 days): 69%
- Decline in number of hCG-binding sites (LH receptors) [1]: 50%
- Reduction of LH-stimulated testosterone production in Leydig cells [1]: 55%
- Increase of testis weight compared to controls ([2]; at 90 days): 40%
- Increase of testis weight compared to controls ([2]; at 135 days): 60%
- Increase of testis weight compared to controls ([2]; at 160 days): 80%
- Increase in testis weight ([3]; 8 to 14 or 10 to 16 weeks of age): about 35%
- Testis weight ([3]; 8 to 14 weeks of age, control 20.0 g): 27.7 g
- Testis weight ([3]; 10 to 16 weeks of age, control 20.0 g): 27.7 g
- Increase in mean testis weight at 28 weeks ([3]; fed from 6 to 12 weeks of age): 96%
- Mean testis weight at 28 weeks ([3]; fed from 6 to 12 weeks of age, control 20.0 g): 39.3 g

Molecule: N[C@@H](Cc1cc(I)c(Oc2ccc(O)c(I)c2)c(I)c1)C(=O)O [T3, 3,5,3′-triiodo-L-thyronine]
- Reduction in body fat [4]: 17-25%
- Reduction in body weight gain compared to controls [5]: 55.24%

Molecule: C[N+](C)(C)CC(=O)O [betaine]
- Decrease in feed conversion ratio [6]: 7.93%
- Increase in average daily gain [6]: 13.20%

Molecule: O=C(O)CCCC[C@@H]1SC[C@@H]2NC(=O)N[C@@H]21 [biotin]
- Cases cured [7]: 60%

Molecule: C[C@]12C[C@H](O)[C@H]3[C@@H](CCC4=CC(=O)CC[C@@]43C)[C@@H]1CC[C@@H]2C(=O)CO [corticosterone]
- Laying hens with cessation of egg production [8]: 98%

Molecule: CCCCC/C=C\C/C=C\C/C=C\CC(I)C1CCCC(=O)O1 (stereo not drawn) [delta-iodolactone]
- Dose lower than iodide for comparable apoptosis ([9]; 0.05 to 0.5 microM delta-iodolactone): about 40 fold

Molecule: Cc1cc2c(C(C)C)c(O)c(O)c(C=O)c2c(O)c1-c1c(C)cc2c(C(C)C)c(O)c(O)c(C=O)c2c1O [gossypol acetic acid]
- Concentration of reverse T3 ([10]; 5 mg/kg/day): 0.0372 ng/mL
- Concentration of T3 ([10]; 5 mg/kg/day): 0.43 ng/mL
- Concentration of reverse T3 ([10]; 10 mg/kg/day): 0.0242 ng/mL
- Concentration of T3 ([10]; 10 mg/kg/day): 0.359 ng/mL

Molecule: I [iodide]
- Protection from radioactive iodide [11]: over 97%
- Inhibitory effect of iodide on thyroid follicle proliferation [12]: 84±2%
- Rate of apoptosis ([9]; 2 and 20 microM iodide): 4-6%

Molecule: CCNC(=O)[C@@H]1CCCN1C(=O)[C@H](CCCNC(=N)N)NC(=O)[C@H](CC(C)C)NC(=O)[C@@H](CC(C)C)NC(=O)[C@H](Cc1ccc(O)cc1)NC(=O)[C@H](CO)NC(=O)[C@H](Cc1c[nH]c2ccccc12)NC(=O)[C@H](Cc1c[nH]cn1)NC(=O)[C@@H]1CCC(=O)N1 [leuprolide acetate]
- Body weight [13]: no body weight loss
- Egg production ([13]; second week): 3.5%

Molecule: [I-].[K+] [potassium iodide]
- Increase of iodine content in adipose tissue [14]: 213%
- Increase of iodine content in fresh muscle [14]: 45%
- Increase of iodine content in heart [14]: 124%
- Increase of iodine content in kidneys [14]: 127%
- Increase of iodine content in liver [14]: 207%

Molecule: O=C([O-])c1ccccc1O.[Na+] [sodium salicylate]
- Rise of free dialyzable fraction of T4 in vitro [15]: 125%
- Decrease in T3 [16]: 60%
- Decrease in plasma T4 level [16]: 20%
- Increase in reverse T3 [16]: 20%

Molecule: O=c1cc[nH]c(=S)[nH]1 [thiouracil]
- Testis weight, gonadosomatic index, Sertoli, germ and Leydig cell numbers higher than control [17]: approximately 100%
- Weights of testes relative to controls [18]: about 10 times
- Increase in testis size ([19]; at 100 days): 68%
- Time for serum T4 and T3 to return to control levels after removal [19]: ≤ 15 days

Molecule: Nicarbazin
- Hatchability [20]: 31%
